Source: patent publication US12116357B2, “Heteroaryl-triazole and heteroaryl-tetrazole compounds as pesticides” (Bayer Aktiengesellschaft, priority 2018, dated 2024)

Assay: log P by HPLC on reversed phase columns (EEC directive 79/831 Annex V.A8)
Assay type: physicochemical
Conditions: LC-UV, neutral range, 0.001 molar ammonium acetate in water and acetonitrile (table footnote); for chromatographic logP: reversed phase HPLC column, read-out: LogP^[a]

Row | chromatographic logP | LogP^[a] | SMILES
1 | 1.62 |  | CC(NCCc1ccc(F)cc1)c1ncnn1-c1ncccn1 (stereo not drawn) [a-009]
2 | 1.73 |  | CC(NCC1(C)CC1)c1ncnn1-c1ncccn1 (stereo not drawn) [a-010]
3 | 0.38 |  | CC(NCc1ncccn1)c1ncnn1-c1ncccn1 (stereo not drawn) [a-011]
4 | 0.8 |  | CC(NCC1CCCO1)c1ncnn1-c1ncccn1 (stereo not drawn) [a-012]
5 | 0.66 |  | CC(NCC1CCOC1)c1ncnn1-c1ncccn1 (stereo not drawn) [a-013]
6 | 0.53 |  | CC(NCc1ccncc1)c1ncnn1-c1ncccn1 (stereo not drawn) [a-014]
7 |  | 0.66 | CC(NCC1CCOC1)c1ncnn1-c1ncccn1 (stereo not drawn) [a-015]
8 | 2.03 |  | CC(NCC1CCCCC1)c1ncnn1-c1ncccn1 (stereo not drawn) [a-016]
9 | 0.92 |  | CSCCNC(C)c1ncnn1-c1ncccn1 (stereo not drawn) [a-017]
10 | 1.35 |  | CC(NCc1ccc(C#N)cc1)c1ncnn1-c1ncccn1 (stereo not drawn) [a-018]
11 | 0.68 |  | CC(NCc1cccnc1)c1ncnn1-c1ncccn1 (stereo not drawn) [a-019]
12 | 1.41 |  | COc1ccc(CNC(C)c2ncnn2-c2ncccn2)cc1 (stereo not drawn) [a-020]
13 | 0.26 |  | CC(NC1COC1)c1ncnn1-c1ncccn1 (stereo not drawn) [a-021]
14 | 0.53 |  | CC(NCC1OCCO1)c1ncnn1-c1ncccn1 (stereo not drawn) [a-022]
15 | 0.87 |  | CC(NC1CSC1)c1ncnn1-c1ncccn1 (stereo not drawn) [a-023]
16 | 0.42 |  | CONC(C)c1ncnn1-c1ncccn1 (stereo not drawn) [a-024]
17 | 1.65 |  | CSCCNC(C)c1ncnn1-c1ccc(C#N)cn1 (stereo not drawn) [a-025]
18 | 2.51 |  | CC(NCCSC(F)(F)F)c1ncnn1-c1ccc(C#N)cn1 (stereo not drawn) [a-026]
